Test results: patent publication US12145944B2, “Imidazopyrimidines as EED inhibitors and the use thereof” (THE REGENTS OF THE UNIVERSITY OF MICHIGAN, priority 2019, dated 2024)
pIC50: −log10 of the molar value. Like-named read-outs stand apart in the source and are kept apart here.

How the values were obtained:
[1] = test system: KARPAS422 human B cell lymphoma cell; assay: Cell proliferation, KARPAS422, 7 day treatment (WST-8); type: cell-based; conditions: Homo sapiens, KARPAS-422, 168 h; for pIC50: 7 day treatment, read-out: Karpas Cell line
How it was run: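 KARPAS422 cells seeded at 2 000-3 000 cells/well and exposed to serially diluted compounds for 7 days at 37 °C, 5% CO2. Growth measured by WST-8 (1-4 h, absorbance 450 nm). Readings normalized to DMSO-treated cells; IC50 from nonlinear regression.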

Pfeiffer cell line = assay: Anti-proliferative activity, Pfeiffer cell line, 7 day treatment; type: cell-based; conditions: Homo sapiens, 168 h; for pIC50: 7 day treatment, read-out: Pfeiffer Cell line
Method: “N/A” stands for “not assessed”.
To assess the effect of PRC2 inhibition on cell growth, cells were seeded in 96-well cell culture plates at a density of 2 000-3 000 cells/well in 200 µL of culture medium, and treated with serially diluted compounds for 7 days at 37° C. in an atmosphere of 5% CO2. Cell growth was evaluated by a […] WST-8 assay (Dojindo Molecular Technologies) using a Tecan Infinite M1000 multimode microplate reader (Tecan, Morrisville, NC). The WST-8 reagent was added to the plate, incubated for 1-4 h, and read at 450 nm. The readings were normalized to the DMSO-treated cells, and the IC50 was calculated by nonlinear regression analysis using GraphPad Prism 6 software

[2] = anti-proliferative IC50 class, Karpas 422 cell line
[3] = anti-proliferative IC50 class, Pfeiffer cell line
[4] = anti-proliferative IC50, Karpas 422 cell line
[5] = anti-proliferative IC50, Pfeiffer cell line

SMILES	pIC50 [1, 2]	pIC50 (Pfeiffer cell line; [3])	pIC50 [1, 4]	pIC50 (Pfeiffer cell line; [5])	further results
CCc1ccc2c(n1)CN(CC(F)(F)F)C(=O)c1ncn3c(NCc4c(F)ccc5c4CCO5)ncc-2c13 [E 12, 7-ethyl-12-(((5-fluoro-2,3-dihydrobenzofuran-4-yl)methyl)amino)-4-(2,2,2-trifluoroethyl)-4,5-dihydro-3H-2,4,6,11,12a-pentaazabenzo[4,5]cycloocta[1,2,3-cd]inden-3-one]	> 8.00	> 8.00			
CS(=O)(=O)c1ccc(-c2cnc(NCc3c(F)ccc4c3CCO4)n3cnc(S(C)(=O)=O)c23)cc1 [compound 100, N-((5-fluoro-2,3-dihydrobenzofuran-4-yl)methyl)-1-(methylsulfonyl)-8-(4 (methylsulfonyl)phenyl)imidazo[1,5-c]pyrimidin-5-amine]					IC50 ([1]; read-out: Karpas Cell line (nM)): 0.26 nM; IC50 (Pfeiffer cell line; Pfeiffer, read-out: Pfeiffer Cell line (nM)): 1.05 nM
O=C1NCc2ccc(C(F)(F)F)cc2-c2cnc(NCc3c(F)ccc4c3CCO4)n3cnc1c23 [compound 26, 12-(((5-fluoro-2,3-dihydrobenzofuran-4-yl)methyl)amino)-8-(trifluoromethyl)-4,5-dihydro-3H-2,4,11,12a-tetraazabenzo[4,5]cycloocta[1,2,3-cd]inden-3-one]			7.38	7.48	
CCc1cnc2n1Cc1nc(C)ccc1-c1cnc(NCc3c(F)ccc4c3CCO4)n3cnc-2c13 [E 38, 5-ethyl-N-((5-fluoro-2,3-dihydrobenzofuran-4-yl)methyl)-8-methyl-6H-2,3,5a,7,12,13a-hexaazabenzo[4,5]cyclopenta[7,8]cycloocta[1,2,3-cd]inden-13-amine]	7.00 to 8.00	7.00 to 8.00			
COc1cccc(F)c1CNc1ncc2c3c(ncn13)C(=O)OCc1cc(C(F)(F)F)ccc1-2 [compound 28, 12-((2-fluoro-6-methoxybenzyl)amino)-7-(trifluoromethyl)-3H,5H-4-oxa-2,11,12a-triazabenzo[4,5]cycloocta[1,2,3-cd]inden-3-one]			< 7.00	< 7.00	
O=C1OCc2cc(F)ccc2-c2cnc(NCc3cccc4c3CCO4)n3cnc1c23 [compound 9, 12-(((2,3-dihydrobenzofuran-4-yl)methyl)amino)-7-fluoro-3H,5H-4-oxa-2,11,12a-triazabenzo[4,5]cycloocta[1,2,3-cd]inden-3-one]			8.25	8.74	
Cc1ccc2c(n1)CCN(CC(F)(F)F)C(=O)c1ncn3c(NCc4c(F)ccc5c4CCO5)ncc-2c13 [E 30, 13-(((5-fluoro-2,3-dihydrobenzofuran-4-yl)methyl)amino)-8-methyl-4-(2,2,2-trifluoroethyl)-5,6-dihydro-2,4,7,12,13a-pentaazabenzo[4,5]cyclonona[1,2,3-cd]inden-3(4H)-one]	7.00 to 8.00	7.00 to 8.00			
O=C1c2ncn3c(NCc4c(F)ccc5c4CCO5)ncc(c23)-c2sc(C(F)(F)F)nc2CN1C1CC1 [compound 91, 4-cyclopropyl-11-(((5-fluoro-2,3-dihydrobenzofuran-4-yl)methyl)amino)-7-(trifluoromethyl)-4,5-dihydro-3H-8-thia-2,4,6,10,11a-pentaazacyclopenta[4,5]cycloocta[1,2,3-cd]inden-3-one]			8.28	10.37	
CN1CCC(CN2Cc3nc(C(F)(F)F)ccc3-c3cnc(NCc4c(F)ccc5c4CCO5)n4cnc(c34)C2=O)CC1 [compound 42, 12-(((5-fluoro-2,3-dihydrobenzofuran-4-yl)methyl)amino)-4-((1-methylpiperidin-4-yl)methyl)-7-(trifluoromethyl)-4,5-dihydro-3H-2,4,6,11,12a-pentaazabenzo[4,5]cycloocta[1,2,3-cd]inden-3-one]			8.40	8.38	
CCc1cnc2n1Cc1cc(C(F)(F)F)ncc1-c1cnc(NCc3c(F)ccc4c3CCO4)n3cnc-2c13 [E 37, 5-ethyl-N-((5-fluoro-2,3-dihydrobenzofuran-4-yl)methyl)-8-(trifluoromethyl)-6H-2,3,5a,9,12,13a-hexaazabenzo[4,5]cyclopenta[7,8]cycloocta[1,2,3-cd]inden-13-amine]	7.00 to 8.00	7.00 to 8.00			
Cc1ccc2c(n1)CCS(=O)(=O)c1ncn3c(NCc4c(F)ccc5c4CCO5)ncc-2c13 [compound 97, 12-(((5-fluoro-2,3-dihydrobenzofuran-4-yl)methyl)amino)-7-methyl-4,5-dihydro-3-thia-2,6,11,12a-tetraazabenzo[4,5]cycloocta[1,2,3-cd]indene 3,3-dioxide]			8.73	10.24	
O=C1c2ncn3c(NCc4c(F)ccc5c4CCO5)ncc(c23)-c2ccc(C3CCC3)nc2CN1CC(F)(F)F [E 52, 7-cyclobutyl-12-(((5-fluoro-2,3-dihydrobenzofuran-4-yl)methyl)amino)-4-(2,2,2-trifluoroethyl)-4,5-dihydro-3H-2,4,6,11,12a-pentaazabenzo[4,5]cycloocta[1,2,3-cd]inden-3-one]	> 8.00	> 8.00			

More lines, main results first:

pIC50 [1, 2]	pIC50 (Pfeiffer cell line; [3])	pIC50 [1, 4]	pIC50 (Pfeiffer cell line; [5])	SMILES	further results
> 8.00	> 8.00			CC(C)(C)c1cc2c(cn1)-c1cnc(NCc3c(F)ccc4c3CCO4)n3cnc(c13)C(=O)N(CC(F)(F)F)C2 [E 46, 7-(tert-butyl)-12-(((5-fluoro-2,3-dihydrobenzofuran-4-yl)methyl)amino)-4-(2,2,2-trifluoroethyl)-4,5-dihydro-3H-2,4,8,11,12a-pentaazabenzo[4,5]cycloocta[1,2,3-cd]inden-3-one]	
> 8.00	> 8.00			Cc1cc2c(cn1)-c1cnc(NCc3c(F)ccc4c3CCO4)n3cnc(c13)C(=O)N(C(C)C)C2 [E 2, 12-(((5-fluoro-2,3-dihydrobenzofuran-4-yl)methyl)amino)-4-isopropyl-7-methyl-4,5-dihydro-3H-2,4,8,11,12a-pentaazabenzo[4,5]cycloocta[1,2,3-cd]inden-3-one]	
		8.26	8.98	O=C1c2ncn3c(NCc4c(F)ccc5c4CCO5)ncc(c23)-c2cnc(C(F)(F)F)cc2CN1CC1(O)CC1 [compound 43, 12-(((5-fluoro-2,3-dihydrobenzofuran-4-yl)methyl)amino)-4-((1-hydroxycyclopropyl)methyl)-7-(trifluoromethyl)-4,5-dihydro-3H-2,4,8,11,12a-pentaazabenzo[4,5]cycloocta[1,2,3-cd]inden-3-one]	
7.00 to 8.00	7.00 to 8.00			Cc1cnc2n1Cc1cc(C(F)(F)F)ncc1-c1cnc(NCc3c(F)ccc4c3CCO4)n3cnc-2c13 [E 10, N-((5-fluoro-2,3-dihydrobenzofuran-4-yl)methyl)-5-methyl-8-(trifluoromethyl)-6H-2,3,5a,9,12,13a-hexaazabenzo[4,5]cyclopenta[7,8]cycloocta[1,2,3-cd]inden-13-amine]	
		8.58	9.46	CN1Cc2cc(C(F)(F)F)ncc2-c2cnc(NCc3c(F)ccc4c3CCO4)n3cnc(c23)C1=O [compound 34, 12-(((5-fluoro-2,3-dihydrobenzofuran-4-yl)methyl)amino)-4-methyl-7-(trifluoromethyl)-4,5-dihydro-3H-2,4,8,11,12a-pentaazabenzo[4,5]cycloocta[1,2,3-cd]inden-3-one]	
7.00 to 8.00	7.00 to 8.00			Fc1ccc2c(c1CNc1ncc3c4c(ncn14)-c1nccn1Cc1cc(C(F)(F)F)ncc1-3)CCO2 [E 33, N-((5-fluoro-2,3-dihydrobenzofuran-4-yl)methyl)-8-(trifluoromethyl)-6H-2,3,5a,9,12,13a-hexaazabenzo[4,5]cyclopenta[7,8]cycloocta[1,2,3-cd]inden-13-amine]	
> 8.00	> 8.00			Cc1cc2c(cn1)-c1cnc(NCc3c(F)ccc4c3CCO4)n3cnc(c13)C(=O)N(CC(F)F)C2 [E 9, 4-(2,2-difluoroethyl)-12-(((5-fluoro-2,3-dihydrobenzofuran-4-yl)methyl)amino)-7-methyl-4,5-dihydro-3H-2,4,8,11,12a-pentaazabenzo[4,5]cycloocta[1,2,3-cd]inden-3-one]	
		8.45	10.13	CC(F)(F)CN1Cc2cc(C(F)(F)F)ncc2-c2cnc(NCc3c(F)ccc4c3CCO4)n3cnc(c23)C1=O [compound 82, 4-(2,2-difluoropropyl)-12-(((5-fluoro-2,3-dihydrobenzofuran-4-yl)methyl)amino)-7-(trifluoromethyl)-4,5-dihydro-3H-2,4,8,11,12a-pentaazabenzo[4,5]cycloocta[1,2,3-cd]inden-3-one]	
> 8.00	> 8.00			CC(C)c1ccc2c(n1)CN(CC(F)(F)F)C(=O)c1ncn3c(NCc4c(F)ccc5c4CCO5)ncc-2c13 [E 15, 12-(((5-fluoro-2,3-dihydrobenzofuran-4-yl)methyl)amino)-7-isopropyl-4-(2,2,2-trifluoroethyl)-4,5-dihydro-3H-2,4,6,11,12a-pentaazabenzo[4,5]cycloocta[1,2,3-cd]inden-3-one]	
		8.25	8.98	O=C1c2ncn3c(NCc4c(F)ccc5c4CCO5)ncc(c23)-c2cnc(C(F)(F)F)cc2CN1C1CC1 [Cpd. No. 36, 4-cyclopropyl-12-(((5-fluoro-2,3-dihydrobenzofuran-4-yl)methyl)amino)-7-(trifluoromethyl)-4,5-dihydro-3H-2,4,8,11,12a-pentaazabenzo[4,5]cycloocta[1,2,3-cd]inden-3-one]	
